# Measured values as given in patent EP1910527B1, “MALTOSE-1-PHOSPHATE-PRODUCING ENZYME” (Kao Corporation, priority 2005, dated 2007).
# Key:
# [1] = system: M-1-P-producing enzyme; assay: Maltose transfer reaction without phosphate, HPLC analysis of products; format: biochemical, Corynebacterium glutamicum JCM1321; settings: 2.0% substrate, 0.16 U/mL enzyme, one hour at 37°C
# Procedure: As substrates, 2% dextrin MAX 1000 (Matsutani Chemical) and 1M phosphate buffer (pH 7) were employed. To the substrates, a suitably diluted enzyme was added, and the mixture was incubated for one hour at 37°C, followed by quantification of the produced […] through HPLC. Specifically, quantification of […] was performed through use of a DX500 chromatography system (product of DIONEX Corporation) (column: CarboPac PA1 (4x250 mm), detector: ED40 pulsed amperometric detector, eluent: (solution A) 100mM sodium hydroxide; (solution B) 100mM sodium hydroxide containing 1M sodium acetate). Linear gradient analysis was employed (initial concentration: solution.A 90% : solution B 10%, 0-17 min.: solution A 18.5% : solution B 81.5%). As standard substances, 100mM and 50mM […] products (product of SIGMA) were employed. […] One enzyme unit (1U) is defined as the amount of enzyme that produces 1 μM of […] per minute. 0.16 U/mL […]-producing enzyme was allowed to react with each of the substrates having different chain lengths (glucose, maltose, maltotriose, maltotetraose, maltopentaose, maltohexaose (Seikagaku Corporation)) (2.0%) for one hour at 37°C, and the reaction mixture was subjected to HPLC for analysis in a manner similar to that described in Example 1 (the results are represented as peak area). The retention times of maltooligosaccharides (DP=1 to 11) were estimated through analysis of dextrin (Matsutani Chemical).
# [2] = system: M-1-P-producing enzyme; assay: Substrate specificity: production of M-1-P from phosphate and saccharide substrates, HPLC quantification; format: biochemical, Corynebacterium glutamicum JCM1321; settings: 2.5% substrate, 250mM phosphate buffer (pH 7), 0.16 U/mL enzyme, 15 hours at 37°C
# Procedure: As substrates, 2% dextrin MAX 1000 (Matsutani Chemical) and 1M phosphate buffer (pH 7) were employed. To the substrates, a suitably diluted enzyme was added, and the mixture was incubated for one hour at 37°C, followed by quantification of the produced […] through HPLC. Specifically, quantification of […] was performed through use of a DX500 chromatography system (product of DIONEX Corporation) (column: CarboPac PA1 (4x250 mm), detector: ED40 pulsed amperometric detector, eluent: (solution A) 100mM sodium hydroxide; (solution B) 100mM sodium hydroxide containing 1M sodium acetate). Linear gradient analysis was employed (initial concentration: solution.A 90% : solution B 10%, 0-17 min.: solution A 18.5% : solution B 81.5%). As standard substances, 100mM and 50mM […] products (product of SIGMA) were employed. […] One enzyme unit (1U) is defined as the amount of enzyme that produces 1 μM of […] per minute. To 2.5% Dextrin MAX 1000 (Matsutani Chemical) and 250mM phosphate buffer (pH 7), 0.16 U/mL M-1-P-producing enzyme was added, and the mixture was allowed to react for 15 hours at 37°C. In a manner similar to that described in Example 1, […] was quantified. […] To 250mM Phosphate buffer (pH 7) and each of substrates having different chain lengths (glucose, maltose, maltotriose, maltotetraose, maltopentaose, maltohexaose (Seikagaku Corporation)) (2.5%), 0.16 U/mL M-1-P-producing enzyme was added, and the mixture was allowed to react for 15 hours at 37°C. In a manner similar to that described in Example 1, […] was quantified.
SMILES,Product (Peak area x 10^6): DP=3 [1],Product (Peak area x 10^6): DP=4 [1],Product (Peak area x 10^6): DP=5 [1],Product (Peak area x 10^6): DP=6 [1],Product (Peak area x 10^6): DP=7 [1],Product (Peak area x 10^6): DP=8 [1],Product (Peak area x 10^6): DP=9 [1],Product (Peak area x 10^6): DP=10 [1],Product (Peak area x 10^6): DP=11 [1],Product (Peak area x 10^6): Glucose [1],Product (Peak area x 10^6): Maltose [1],Amount of maltose-1-phosphate produced [2]
OC[C@H]1OC(O)[C@H](O)[C@@H](O)[C@@H]1O (some centres unmarked) [Glucose],0.00 x 10^6,0.00 x 10^6,0.00 x 10^6,0.00 x 10^6,0.00 x 10^6,0.00 x 10^6,0.00 x 10^6,0.00 x 10^6,0.00 x 10^6,65.97 x 10^6,0.00 x 10^6,
OC[C@H]1O[C@H](O[C@H]2[C@H](O)[C@@H](O)[C@@H](O[C@H]3[C@H](O)[C@@H](O)[C@@H](O[C@H]4[C@H](O)[C@@H](O)C(O)O[C@@H]4CO)O[C@@H]3CO)O[C@@H]2CO)[C@H](O)[C@@H](O)[C@@H]1O (some centres unmarked) [Maltotetraose],1.25 x 10^6,30.80 x 10^6,0.00 x 10^6,0.36 x 10^6,0.00 x 10^6,0.00 x 10^6,0.00 x 10^6,0.00 x 10^6,0.00 x 10^6,0.19 x 10^6,0.15 x 10^6,
OC[C@H]1O[C@H](O[C@H]2[C@H](O)[C@@H](O)[C@@H](O[C@H]3[C@H](O)[C@@H](O)[C@@H](O[C@H]4[C@H](O)[C@@H](O)[C@@H](O[C@H]5[C@H](O)[C@@H](O)C(O)O[C@@H]5CO)O[C@@H]4CO)O[C@@H]3CO)O[C@@H]2CO)[C@H](O)[C@@H](O)[C@@H]1O (some centres unmarked) [Maltopentaose],0.51 x 10^6,0.58 x 10^6,26.40 x 10^6,0.00 x 10^6,0.52 x 10^6,0.00 x 10^6,0.00 x 10^6,0.00 x 10^6,0.00 x 10^6,0.09 x 10^6,0.27 x 10^6,1.04 µM
OC[C@H]1O[C@H](O[C@H]2[C@H](O)[C@@H](O)[C@@H](O[C@H]3[C@H](O)[C@@H](O)C(O)O[C@@H]3CO)O[C@@H]2CO)[C@H](O)[C@@H](O)[C@@H]1O (some centres unmarked) [Maltotriose],33.27 x 10^6,0.12 x 10^6,0.00 x 10^6,0.00 x 10^6,0.00 x 10^6,0.00 x 10^6,0.00 x 10^6,0.00 x 10^6,0.00 x 10^6,0.52 x 10^6,1.84 x 10^6,
OC[C@H]1O[C@H](O[C@H]2[C@H](O)[C@@H](O)[C@@H](O[C@H]3[C@H](O)[C@@H](O)[C@@H](O[C@H]4[C@H](O)[C@@H](O)[C@@H](O[C@H]5[C@H](O)[C@@H](O)[C@@H](O[C@H]6[C@H](O)[C@@H](O)C(O)O[C@@H]6CO)O[C@@H]5CO)O[C@@H]4CO)O[C@@H]3CO)O[C@@H]2CO)[C@H](O)[C@@H](O)[C@@H]1O (some centres unmarked) [Maltohexaose],0.37 x 10^6,10.20 x 10^6,0.00 x 10^6,8.87 x 10^6,0.00 x 10^6,5.04 x 10^6,0.00 x 10^6,3.96 x 10^6,0.00 x 10^6,0.05 x 10^6,0.61 x 10^6,49.6 µM
OC[C@H]1O[C@H](O[C@H]2[C@H](O)[C@@H](O)[C@@H](O[C@H]3[C@H](O)[C@@H](O)[C@@H](O[C@H]4[C@H](O)[C@@H](O)[C@@H](O[C@H]5[C@H](O)[C@@H](O)[C@@H](O[C@H]6[C@H](O)[C@@H](O)[C@@H](O[C@H]7[C@H](O)[C@@H](O)C(O)O[C@@H]7CO)O[C@@H]6CO)O[C@@H]5CO)O[C@@H]4CO)O[C@@H]3CO)O[C@@H]2CO)[C@H](O)[C@@H](O)[C@@H]1O (some centres unmarked) [Maltoheptaose],0.12 x 10^6,0.19 x 10^6,9.59 x 10^6,0.00 x 10^6,6.36 x 10^6,0.00 x 10^6,3.42 x 10^6,0.00 x 10^6,3.47 x 10^6,0.11 x 10^6,0.28 x 10^6,96.1 µM
OC[C@H]1O[C@H](O[C@H]2[C@H](O)[C@@H](O)C(O)O[C@@H]2CO)[C@H](O)[C@@H](O)[C@@H]1O (mixture of isomers) [Maltose],0.27 x 10^6,0.00 x 10^6,0.00 x 10^6,0.00 x 10^6,0.00 x 10^6,0.00 x 10^6,0.00 x 10^6,0.00 x 10^6,0.00 x 10^6,0.19 x 10^6,46.79 x 10^6,
